Test results published in patent US20220283177A1, “METHOD FOR DETECTING INTERACTION AND AFFINITY BETWEEN LIGAND AND PROTEIN” (DALIAN INSTITUTE OF CHEMICAL PHYSICS, CHINESE ACADEMY OF …, priority 2019, published 2022).

Legend:
CDK9 [1] = target: T1, CDK9 (Homo sapiens, UniProt P50750); test: Solvent mixture (A.E.A.)-based SIP, western blotting, SNS-032; settings: 100 μM SNS-032, 293T cell lysate, high percentage of A.E.A.
Description: (§1) One portion of the supernatants was used for western blotting analysis and the left portion was used for MS-based quantification.

CDK9 [2] = target: T1, CDK9; test: CA-based SIP, western blotting, SNS-032; type: binding; settings: 100 μM SNS-032, 293T cell lysate, CA gradient
Description: The procedure of western blotting was as same as Sample 1.

GSK-3a = GSK-3a (Homo sapiens, UniProt P49840); test: Solvent mixture (A.E.A.)-based SIP, quantitative proteomics, SNS-032; settings: 100 μM SNS-032, 293T cell lysate, 13% A.E.A. (FIG. 2F)
Description: as §1

NDUFV1 = NDUFV1 (Homo sapiens, UniProt P49821); test: Affinity evaluation by solvent mixture-based SIP dose response (western blotting)
Description: The calculation equation: Y=min+(max−min)/(1+10^((Log EC50−X)*Hill Slope)), Y is the protein abundance, X is the different drug concentrations, min and max are the minimum and maximum values of the corresponding protein abundance on the Y axis, respectively. Hill Slope is the absolute value of the maximum slope of the curve (i.e., the midpoint of the curve).

[3] = withdrawn from clinical trials; cited from earlier work

T1 sequence (P50750 whole entry): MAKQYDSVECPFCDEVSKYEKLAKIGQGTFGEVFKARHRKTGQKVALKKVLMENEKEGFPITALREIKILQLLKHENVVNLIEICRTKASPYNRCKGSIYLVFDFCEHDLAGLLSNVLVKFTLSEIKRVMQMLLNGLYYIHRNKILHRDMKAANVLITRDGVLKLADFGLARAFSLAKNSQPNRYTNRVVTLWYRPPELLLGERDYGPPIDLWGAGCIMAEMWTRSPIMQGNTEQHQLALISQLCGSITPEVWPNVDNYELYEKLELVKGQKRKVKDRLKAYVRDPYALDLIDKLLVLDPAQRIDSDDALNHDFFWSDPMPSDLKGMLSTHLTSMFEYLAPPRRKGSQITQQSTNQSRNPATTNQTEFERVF
T1 sequence (O60563 whole entry partner): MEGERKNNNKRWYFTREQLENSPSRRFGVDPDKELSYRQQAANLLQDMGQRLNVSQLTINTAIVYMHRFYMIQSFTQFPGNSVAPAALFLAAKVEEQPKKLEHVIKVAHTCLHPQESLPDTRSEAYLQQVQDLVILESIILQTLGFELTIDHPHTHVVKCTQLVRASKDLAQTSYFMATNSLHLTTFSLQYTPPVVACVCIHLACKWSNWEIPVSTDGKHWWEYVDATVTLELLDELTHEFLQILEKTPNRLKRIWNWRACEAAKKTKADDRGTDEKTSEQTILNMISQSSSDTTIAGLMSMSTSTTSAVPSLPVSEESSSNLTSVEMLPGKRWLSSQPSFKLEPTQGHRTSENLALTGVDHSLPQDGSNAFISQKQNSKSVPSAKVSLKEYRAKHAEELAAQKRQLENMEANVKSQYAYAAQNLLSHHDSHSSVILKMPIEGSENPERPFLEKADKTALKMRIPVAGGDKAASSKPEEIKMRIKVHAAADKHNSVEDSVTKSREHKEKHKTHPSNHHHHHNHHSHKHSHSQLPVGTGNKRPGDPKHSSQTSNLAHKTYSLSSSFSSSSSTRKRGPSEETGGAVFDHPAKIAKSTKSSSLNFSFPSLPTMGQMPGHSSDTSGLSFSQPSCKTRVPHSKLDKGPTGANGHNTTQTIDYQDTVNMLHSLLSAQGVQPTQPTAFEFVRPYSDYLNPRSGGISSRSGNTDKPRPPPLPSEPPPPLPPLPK
Sequence of NDUFV1 (P49821 21-464): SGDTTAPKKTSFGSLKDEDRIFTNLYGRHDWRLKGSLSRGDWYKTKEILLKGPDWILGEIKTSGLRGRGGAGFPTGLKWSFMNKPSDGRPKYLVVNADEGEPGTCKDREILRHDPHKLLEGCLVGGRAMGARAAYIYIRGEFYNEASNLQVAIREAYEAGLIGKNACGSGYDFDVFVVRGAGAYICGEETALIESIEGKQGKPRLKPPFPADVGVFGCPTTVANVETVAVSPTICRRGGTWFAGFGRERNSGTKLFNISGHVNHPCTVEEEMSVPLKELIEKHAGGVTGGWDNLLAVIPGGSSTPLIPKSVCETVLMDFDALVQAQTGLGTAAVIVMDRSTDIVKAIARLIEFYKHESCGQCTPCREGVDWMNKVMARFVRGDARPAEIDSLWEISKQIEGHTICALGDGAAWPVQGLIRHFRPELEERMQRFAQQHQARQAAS
Sequence of GSK-3a (P49840 whole entry): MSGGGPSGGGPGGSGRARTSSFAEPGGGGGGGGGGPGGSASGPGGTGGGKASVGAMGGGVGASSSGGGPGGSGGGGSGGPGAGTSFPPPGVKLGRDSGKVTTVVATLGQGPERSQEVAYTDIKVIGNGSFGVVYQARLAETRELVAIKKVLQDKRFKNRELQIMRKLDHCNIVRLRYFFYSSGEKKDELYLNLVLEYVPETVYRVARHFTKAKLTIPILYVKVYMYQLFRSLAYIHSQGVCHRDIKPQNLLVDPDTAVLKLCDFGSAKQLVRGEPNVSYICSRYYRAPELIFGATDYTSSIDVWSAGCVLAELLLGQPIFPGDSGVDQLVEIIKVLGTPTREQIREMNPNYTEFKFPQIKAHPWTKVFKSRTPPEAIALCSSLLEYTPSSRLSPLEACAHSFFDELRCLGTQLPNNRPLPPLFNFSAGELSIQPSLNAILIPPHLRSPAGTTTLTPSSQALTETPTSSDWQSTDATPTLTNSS

SMILES: CC(C)(C)c1cnc(CSc2cnc(NC(=O)C3CCNCC3)s2)o1 [SNS-032]
- stabilization of CDK9 by western blotting (CDK9 [1]): significant stabilization shifts
- abundance of CDK9 by western blotting (CDK9 [2]): higher as compared with that in the control group
- average log 2 FC (H/L normalization ratio) of GSK-3a (GSK-3a): 1.13

SMILES: COC1=C2C[C@@H](C)C[C@H](OC)[C@H](O)[C@@H](C)/C=C(\C)[C@H](OC(N)=O)[C@@H](OC)/C=C\C=C(/C)C(=O)NC(=CC1=O)C2=O [geldanamycin]
- EC50 (NDUFV1): 10 to 100 µM
- side effects in clinical trials [3]: severe hepatotoxicity
